The source of these data is patent US10906876B2, “Tetrahydroisoquinolines as selective NADPH oxidase 2 inhibitors” (University of Pittsburgh—Of the Commonwealth System of …, priority 2013, dated 2021).

In one assay the target is T1, Bovine milk XO (Bos taurus, UniProt P80457).
T1 construct: Bovine milk XO (grade 1, ammonium sulfate suspension; Sigma-Aldrich); purchased Sigma-Aldrich; host or cells: bovine milk
In words: Xanthine oxidase assay (Amplex Red). The class given is biochemical. As to conditions: compounds at 25 μM and 50 μM (FIG. 4). As to the method: Bovine milk XO (grade 1, ammonium sulfate suspension; Sigma-Aldrich) was first desalted using PD-10 columns (Sephadex G-25, GE Healthcare Biosciences, Piscataway, N.J.) equilibrated in PBS. XO activity was assayed by measuring H2O2 production using the Amplex® Red assay. Reaction mixture contained: 0.02 U/mL XO, 25 mM Hepes, pH 7.4, containing 0.12 M NaCl, 3 mM KCl, 1 mM MgCl2, 0.1 mM Amplex® Red, and 0.32 U/mL of horse radish peroxidase (HRP), reaction was initiated by addition of 1 mM hypoxanthine. Fluorescence was quantified over time using a Biotek Synergy 4 Hybrid Multi-Mode Microplate Reader.
Data are expressed as % of vehicle control.

The target of assay [1] is T2, Nox2 (Homo sapiens, UniProt P04839).
T2 construct: expressed in transfected cells
T2 sequence (P04839 2-570 limits assumed): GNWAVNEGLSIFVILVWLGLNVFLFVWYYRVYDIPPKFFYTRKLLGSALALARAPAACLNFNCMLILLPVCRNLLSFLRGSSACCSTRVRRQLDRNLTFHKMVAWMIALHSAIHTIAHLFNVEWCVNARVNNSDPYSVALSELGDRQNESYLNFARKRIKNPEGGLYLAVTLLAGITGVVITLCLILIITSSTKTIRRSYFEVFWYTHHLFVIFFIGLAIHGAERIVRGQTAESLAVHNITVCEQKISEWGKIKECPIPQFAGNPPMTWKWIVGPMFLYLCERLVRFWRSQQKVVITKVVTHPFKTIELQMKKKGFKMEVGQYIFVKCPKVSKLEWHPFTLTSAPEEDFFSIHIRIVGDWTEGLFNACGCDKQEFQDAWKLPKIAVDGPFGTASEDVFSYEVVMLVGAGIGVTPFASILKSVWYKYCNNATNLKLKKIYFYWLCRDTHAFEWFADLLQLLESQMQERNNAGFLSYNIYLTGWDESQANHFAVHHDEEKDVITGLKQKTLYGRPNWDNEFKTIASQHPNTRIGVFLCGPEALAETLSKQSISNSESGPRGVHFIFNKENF
In words: ROS (H2O2) generation in whole COS-Nox2 cells, Amplex Red assay. It counts as cell-based. From the text:
(§1) All cell culture reagents were obtained from Invitrogen, unless indicated. COS-22 (COS-7 cells stably expressing human p22^phox) and COS-Nox2 (a.k.a. COS-phox) cells (COS-7 cells stably expressing human p22^phox, Nox2, p47^phox and p67^phox) were kindly provided by Dr. Mary C. Dinauer (Indiana University, School of Medicine) (Price et al., Blood, 2002, 99:2653-2661). COS-22 cells were maintained in Dulbecco's Modified Eagle Medium (DMEM) with 4.5 g/L glucose, L-glutamine and sodium pyruvate containing 10% heat-inactivated fetal bovine serum (FBS), 100 units/ml penicillin and 100 μg/ml streptomycin (complete media) supplemented with 1.8 mg/ml G418 (Calbiochem/EMB Bioscience, Gibbstown, N.J.). COS-Nox2 cells were maintained in complete media supplemented with 1.8 mg/mL G418, 1 μg/mL puromycin (Sigma, St Louis, Mo.) and 0.2 mg/mL hygromycin B (Invitrogen, Carlsbad, Calif.). HEK-Nox5 cells were kindly provided by Dr. David Fulton (Georgia Health Sciences University) and maintained in complete media.
H2O2 production was quantified in intact COS-Nox4 cells by Amplex® Red. Briefly, COS-Nox4 cells (5×10^4 cells/ml) were re-plated into 384-well plate in assay buffer (25 mM Hepes, pH 7.4, containing 0.12 M NaCl, 3 mM KCl, 1 mM MgCl2). The cells were incubated in the presence or absence of drugs at 37° C. in assay buffer supplemented with 0.1 mM Amplex® Red, and 0.32 U/ml of horse radish peroxidase (HRP) for 15 min. Fluorescence measurements were made using a Biotek Synergy 4 Hybrid Multi-Mode Microplate Reader with a 530/25-excitation and a 590/35-emission filter. The reaction was monitored at 37° C. for 1 h. A standard curve of known H2O2 concentrations was included on each plate. Nox4 activity was obtained by calculating the rate of H2O2 production as RFU/min and then subtracting the equivalent value given by non-transfected COS-22 cells. Similarly, H2O2 production by Nox2 cells was also measured by Amplex® Red as described above but in the presence of 150 U/mL of SOD and the reaction was initiated by addition of 5 μM PMA. The rate of H2O2 production in this case was calculated as RFU/min after the subtraction of the equivalent value given by non-stimulated cells. Data are expressed as % of vehicle control.
(§2) All data are expressed as means±SEM. IC50 values were determined using the GraphPad Prism software (GraphPad Software, San Diego, Calif.) for non-linear regression three-parameters, with constrain values of 100 and 0 for top and bottom, respectively, and assumes a Hill slope of 1.

For assay [2], the target named is T2, Nox2. Briefly: ROS (superoxide) generation in whole COS-Nox2 cells, L-012 chemiluminescence. The conditions noted are these: whole COS-Nox2 cells stimulated with 5 μM PMA. It counts as cell-based.
Description: as §1
COS-Nox2, COS-Nox1/NOXO1/NOXA1, HEK-Nox5 and COS-22 cells were re-plated in OPTIMEM into 384-well white micro-plates (Greiner-Bio One GmbH, Germany) at a density of 2.5×10^3 cells/well for COS-Nox2 and 5×10^4 cells/well for all others. The cells were incubated at 37° C. in PBS containing […] L-012 for 10 min. Reaction was initiated by addition of 5 μM PMA in the case of Nox2 or 1 μM PMA/0.1 μM Ionomycin in the case of Nox5. Since Nox1 was constitutively active, Nox1-derived O2^•− was assessed by comparison to non-transfected cells (Cos22). Luminescence was quantified over time using a Biotek Synergy 4 Hybrid Multi-Mode Microplate Reader. The specificity of L-012 for O2^•− was confirmed by the addition of SOD (150 U/mL).
as §2
Heterologous Nox1, 2, 4, and 5 cell systems were used as a testing paradigm to identify a probe molecule that inhibits Nox2 selectively over Nox1, 4, and 5. An acceptable probe would also show a lack of activity against XO, which also produces ROS. The latter screen would serve two purposes: (1) to eliminate drugs that inhibit an oxidase of distinct composition; and (2) to preclude agents that directly scavenge ROS. A cell-based primary assay using stable Nox2-transfected COS cells (Price et al., Blood 2002, 99:2653-2661) with L-012 chemiluminescence (Daiber et al., Free Radic. Biol. Med. 2004, 36:101-111) was used as a detection system for O2^•−-generation.

T1 sequence (P80457 whole entry): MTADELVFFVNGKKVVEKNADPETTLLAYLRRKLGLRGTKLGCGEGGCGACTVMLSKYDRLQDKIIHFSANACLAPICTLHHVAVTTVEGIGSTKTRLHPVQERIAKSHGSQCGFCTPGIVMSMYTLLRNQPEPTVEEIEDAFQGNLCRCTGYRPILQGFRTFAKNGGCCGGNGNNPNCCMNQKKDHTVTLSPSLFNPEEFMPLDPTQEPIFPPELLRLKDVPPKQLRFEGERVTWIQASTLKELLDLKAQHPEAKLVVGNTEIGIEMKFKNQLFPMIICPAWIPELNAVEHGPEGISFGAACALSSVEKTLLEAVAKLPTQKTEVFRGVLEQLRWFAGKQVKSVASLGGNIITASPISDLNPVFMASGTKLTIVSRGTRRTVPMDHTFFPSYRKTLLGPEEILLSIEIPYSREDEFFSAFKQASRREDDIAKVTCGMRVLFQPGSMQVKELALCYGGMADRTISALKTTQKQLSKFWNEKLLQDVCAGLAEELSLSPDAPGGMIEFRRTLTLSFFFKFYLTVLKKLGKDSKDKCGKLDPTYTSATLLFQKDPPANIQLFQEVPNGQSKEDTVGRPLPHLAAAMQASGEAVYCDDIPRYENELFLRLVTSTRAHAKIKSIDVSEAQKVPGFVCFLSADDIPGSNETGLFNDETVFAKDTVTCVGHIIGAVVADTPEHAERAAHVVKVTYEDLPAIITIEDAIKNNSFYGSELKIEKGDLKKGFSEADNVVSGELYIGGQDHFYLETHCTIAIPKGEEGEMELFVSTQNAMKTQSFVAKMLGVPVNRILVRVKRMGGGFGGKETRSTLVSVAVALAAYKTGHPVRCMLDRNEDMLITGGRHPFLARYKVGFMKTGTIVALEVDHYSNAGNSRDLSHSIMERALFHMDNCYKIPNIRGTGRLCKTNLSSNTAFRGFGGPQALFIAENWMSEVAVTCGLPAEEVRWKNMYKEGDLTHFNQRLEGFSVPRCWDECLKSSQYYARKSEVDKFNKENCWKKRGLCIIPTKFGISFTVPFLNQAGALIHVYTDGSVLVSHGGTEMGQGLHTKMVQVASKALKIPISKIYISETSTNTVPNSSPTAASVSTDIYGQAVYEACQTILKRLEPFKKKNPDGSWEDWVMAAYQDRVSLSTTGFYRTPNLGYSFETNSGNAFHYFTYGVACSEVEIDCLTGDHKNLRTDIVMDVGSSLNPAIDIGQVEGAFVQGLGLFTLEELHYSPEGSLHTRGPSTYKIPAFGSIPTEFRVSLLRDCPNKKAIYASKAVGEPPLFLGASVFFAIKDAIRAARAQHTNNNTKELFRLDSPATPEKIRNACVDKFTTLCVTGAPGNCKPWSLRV

As to `c1ccc2c(c1)[I+]c1ccccc1-2` [DPI, reference compound], the “Effect on ROS production by xanthine oxidase” value at Bovine milk XO is on record as “complete inhibition”.
In the case of `C=C(C)CC1NC2CC(C)(C)C1c1c(-c3cccnc3)cccc12` (racemic) [Compound 12d, (±)-(1S,4R,9S)-3,3-Dimethyl-9-(2-methylallyl)-5-(pyridin-3-yl)-1,2,3,4-tetrahydro-1,4-(epimino-methano)naphthalene], the “Nox2 inhibitory activity” value at Nox2 [1] (Table 2) is “inactive”. Besides, the IC50 – broadly, the concentration needed to halve the response being measured – on Nox2 [1] (whole COS-Nox2 cells stimulated with 5 μM PMA, Amplex Red) is over 100 µM; at Nox2 [2], over 100 µM.
